The supplement of paper PMC10307832

Experiments:
Assay in all cases: relative viability (nuclei count vs DMSO), 5 days (fraction); higher = more cells survive
17-AAG + Palbociclib = compound: C=CCNC1=C2C[C@@H](C)C[C@H](OC)[C@H](O)[C@@H](C)/C=C(\C)[C@H](OC(N)=O)[C@@H](OC)/C=C\C=C(/C)C(=O)NC(=CC1=O)C2=O [17-AAG] + CC(=O)c1c(C)c2cnc(Nc3ccc(N4CCNCC4)cn3)nc2n(C2CCCC2)c1=O [Palbociclib] (partner 0.5 µM)
Procedure, shortened: (§1)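 After 5 days of treatment, lung cancer cells in 1536-well plates were fixed and stained in a single step (final 0.05% Triton X-100, 1% formaldehyde, 1 ug/ml Hoechst) and their nuclei counted on 4× images. Treatment had been applied by pin tool the day after seeding as one drug alone or as a fixed anchor-drug dose with five library-drug doses (not always all listed) in √10 steps. Relative viability is the nuclei count of treated wells divided by that of vehicle wells, and values are medians of duplicate plates.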

17-AAG + Pictilisib = compound: C=CCNC1=C2C[C@@H](C)C[C@H](OC)[C@H](O)[C@@H](C)/C=C(\C)[C@H](OC(N)=O)[C@@H](OC)/C=C\C=C(/C)C(=O)NC(=CC1=O)C2=O [17-AAG] + CS(=O)(=O)N1CCN(Cc2cc3nc(-c4cccc5[nH]ncc45)nc(N4CCOCC4)c3s2)CC1 [Pictilisib] (partner 1 µM)
Procedure, shortened: as §1

17-AAG + OSI-027 = compound: C=CCNC1=C2C[C@@H](C)C[C@H](OC)[C@H](O)[C@@H](C)/C=C(\C)[C@H](OC(N)=O)[C@@H](OC)/C=C\C=C(/C)C(=O)NC(=CC1=O)C2=O [17-AAG] + COc1cccc2cc(-c3nc([C@H]4CC[C@H](C(=O)O)CC4)n4ncnc(N)c34)[nH]c12 [OSI-027] (partner 0.5 µM)
Procedure, shortened: as §1

17-AAG + Luminespib = compound: C=CCNC1=C2C[C@@H](C)C[C@H](OC)[C@H](O)[C@@H](C)/C=C(\C)[C@H](OC(N)=O)[C@@H](OC)/C=C\C=C(/C)C(=O)NC(=CC1=O)C2=O [17-AAG] + CCNC(=O)c1noc(-c2cc(C(C)C)c(O)cc2O)c1-c1ccc(CN2CCOCC2)cc1 [Luminespib] (partner 0.01 µM)
Procedure, shortened: as §1

| Cell Line | relative viability (17-AAG + Palbociclib; first compound 0.00128 µM) | relative viability (17-AAG + Palbociclib; first compound 0.004048 µM) | relative viability (17-AAG + Palbociclib; first compound 0.0128 µM) | relative viability (17-AAG + Palbociclib; first compound 0.04048 µM) | relative viability (17-AAG + Palbociclib; first compound 0.128 µM) | relative viability (17-AAG + Pictilisib; first compound 0.00128 µM) | relative viability (17-AAG + Pictilisib; first compound 0.004048 µM) | relative viability (17-AAG + Pictilisib; first compound 0.0128 µM) | relative viability (17-AAG + Pictilisib; first compound 0.04048 µM) | relative viability (17-AAG + Pictilisib; first compound 0.128 µM) | relative viability (17-AAG + OSI-027; first compound 0.00128 µM) | relative viability (17-AAG + OSI-027; first compound 0.004048 µM) | relative viability (17-AAG + OSI-027; first compound 0.0128 µM) | relative viability (17-AAG + OSI-027; first compound 0.04048 µM) | relative viability (17-AAG + OSI-027; first compound 0.128 µM) | relative viability (17-AAG + Luminespib; first compound 0.00128 µM) | relative viability (17-AAG + Luminespib; first compound 0.004048 µM) | relative viability (17-AAG + Luminespib; first compound 0.0128 µM) | relative viability (17-AAG + Luminespib; first compound 0.04048 µM) | relative viability (17-AAG + Luminespib; first compound 0.128 µM) |
| --- | --- | --- | --- | --- | --- | --- | --- | --- | --- | --- | --- | --- | --- | --- | --- | --- | --- | --- | --- | --- |
| LK-2 | 0.849 | 0.64 | 0.644 | 0.236 | 0.0922 | 0.725 | 0.659 | 0.6 | 0.208 | 0.175 | 0.26 | 0.225 | 0.151 | 0.138 | 0.144 | 0.201 | 0.162 | 0.181 | 0.17 | 0.177 |
| NCI-H727 | 0.661 | 0.706 | 0.588 | 0.482 | 0.425 | 0.405 | 0.513 | 0.217 | 0.171 | 0.198 | 0.602 | 0.573 | 0.506 | 0.359 | 0.24 | 0.607 | 0.245 | 0.331 | 0.316 | 0.284 |
| NCI-H2342 | 0.458 | 0.542 | 0.504 | 0.495 | 0.525 | – | – | – | – | – | 0.552 | 0.716 | 0.584 | 0.504 | 0.425 | 0.695 | 0.689 | 0.602 | 0.402 | 0.38 |
| HCC-366 | 0.415 | 0.361 | 0.126 | 0.0306 | 0.031 | 0.16 | 0.0822 | 0.0477 | 0.0368 | 0.0284 | 0.942 | 0.964 | 0.117 | 0.0472 | 0.037 | – | – | – | – | – |
| HOP-62 | 0.465 | 0.451 | 0.403 | 0.268 | 0.273 | 0.811 | 0.807 | 0.748 | 0.11 | 0.0928 | 0.879 | 0.806 | 0.6 | 0.44 | 0.112 | 0.928 | 0.806 | 0.919 | 0.36 | 0.136 |
| NCI-H1944 | 0.331 | 0.341 | 0.3 | 0.281 | 0.151 | 0.352 | 0.349 | 0.324 | 0.28 | 0.24 | 0.406 | 0.403 | 0.321 | 0.184 | 0.164 | 0.595 | 0.603 | 0.565 | 0.219 | 0.151 |
| UMC-11 | 0.353 | 0.371 | 0.3 | 0.249 | 0.292 | 0.824 | 0.809 | 0.662 | 0.219 | 0.143 | 0.469 | 0.512 | 0.255 | 0.233 | 0.202 | 0.973 | 0.94 | 0.552 | 0.254 | 0.196 |
| LU99A | 0.434 | 0.42 | 0.384 | 0.454 | 0.137 | 0.308 | 0.377 | 0.232 | 0.228 | 0.144 | 0.333 | 0.332 | 0.282 | 0.217 | 0.141 | 0.239 | 0.201 | 0.213 | 0.169 | 0.146 |
| NCI-H650 | 0.325 | 0.356 | 0.371 | 0.339 | 0.161 | 0.96 | 1.05 | 0.744 | 0.776 | 0.329 | 0.502 | 0.602 | 0.494 | 0.426 | 0.258 | 0.884 | 0.601 | 0.607 | 0.386 | 0.171 |
| A-427 | 0.554 | 0.506 | 0.54 | 0.354 | 0.291 | 0.684 | 0.737 | 0.765 | 0.748 | 0.286 | 0.484 | 0.502 | 0.502 | 0.343 | 0.181 | 0.994 | 0.902 | 0.66 | 0.379 | 0.183 |
| COR-L 105 | 0.431 | 0.389 | 0.406 | 0.356 | 0.384 | 0.394 | 0.434 | 0.435 | 0.324 | 0.298 | 0.719 | 0.829 | 0.704 | 0.351 | 0.306 | 0.858 | 0.708 | 0.671 | 0.432 | 0.224 |
| EBC-1 | – | – | – | – | – | 0.477 | 0.157 | 0.13 | 0.185 | 0.143 | – | – | – | – | – | – | – | – | – | – |
| NCI-H1648 | – | 0.348 | 0.32 | 0.431 | 0.387 | – | – | – | – | – | 0.274 | – | 0.345 | 0.261 | 0.259 | – | – | – | – | – |
| SW 900 | 0.575 | 0.511 | 0.277 | 0.192 | 0.125 | – | – | – | – | – | 0.476 | 0.487 | 0.134 | 0.0879 | 0.0977 | 0.183 | 0.172 | 0.19 | 0.153 | 0.153 |
| NCI-H596 | – | – | – | – | – | 0.363 | 0.304 | 0.417 | 0.42 | 0.253 | 0.742 | 0.713 | 0.854 | 0.519 | 0.274 | 1.08 | 0.865 | 0.996 | 0.548 | 0.414 |
| NCI-H1563 | – | – | – | – | – | 0.67 | 0.647 | 0.604 | 0.614 | 0.563 | 0.755 | 0.647 | 0.564 | 0.509 | 0.481 | 0.476 | 0.497 | 0.537 | 0.525 | 0.49 |
| NCI-H1299 | – | – | – | – | – | 0.802 | 0.791 | 0.698 | 0.151 | 0.0717 | – | – | – | – | – | – | – | – | – | – |
| NCI-H522 | 1.02 | 1.15 | 0.896 | 0.647 | 0.419 | – | – | – | – | – | 0.663 | 0.685 | 0.655 | 0.542 | 0.552 | 0.902 | 1.03 | 0.948 | 1.02 | 0.451 |
| A549 | – | – | – | – | – | 0.543 | 0.114 | 0.0532 | 0.0751 | 0.0642 | – | – | – | – | – | – | – | – | – | – |
| IA-LM | – | – | – | – | – | 0.325 | 0.366 | 0.182 | 0.0706 | 0.0517 | – | – | – | – | – | – | – | – | – | – |
| Calu-6 | – | – | – | – | – | 0.913 | 0.867 | 0.762 | 0.199 | 0.133 | – | – | – | – | – | – | – | – | – | – |
